Measurements published in ChEMBL document CHEMBL2169808, “Discovery of pyrazole carboxylic acids as potent inhibitors of rat long chain L-2-hydroxy acid oxidase” (Bioorg Med Chem Lett, 2012).

Experiments:
[1] = target: T1, 2-Hydroxyacid oxidase 2 (Homo sapiens) (UniProt Q9NYQ3); assay: Inhibition of human Hao2-mediated oxidation of 2-hydroxyoctanoic acid assessed as proportionate release of H2O2 at 1 uM
T1 sequence (whole entry): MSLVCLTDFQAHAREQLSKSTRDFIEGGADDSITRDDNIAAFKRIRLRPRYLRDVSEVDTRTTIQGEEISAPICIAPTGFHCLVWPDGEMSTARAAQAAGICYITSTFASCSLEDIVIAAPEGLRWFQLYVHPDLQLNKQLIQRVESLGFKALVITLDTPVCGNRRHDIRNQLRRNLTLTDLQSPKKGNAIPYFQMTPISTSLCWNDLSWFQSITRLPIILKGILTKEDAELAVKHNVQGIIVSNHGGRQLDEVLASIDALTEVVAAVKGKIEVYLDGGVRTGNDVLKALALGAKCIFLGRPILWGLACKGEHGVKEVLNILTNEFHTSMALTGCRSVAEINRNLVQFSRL

[2] = organism: Rattus norvegicus; assay: Selectivity ratio of IC50 for rat Hao1 to IC50 for rat Hao2
[3] = target: T1, 2-Hydroxyacid oxidase 2 (Homo sapiens); assay: Inhibition of human Hao2-mediated oxidation of 2-hydroxyoctanoic acid assessed as proportionate release of H2O2 at 10 uM
[4] = target: T2, 2-Hydroxyacid oxidase 2 (Rattus norvegicus) (UniProt Q07523); assay: Inhibition of rat Hao2-mediated oxidation of 2-hydroxyoctanoic acid assessed as proportionate release of H2O2 at 10 uM
T2 sequence (whole entry): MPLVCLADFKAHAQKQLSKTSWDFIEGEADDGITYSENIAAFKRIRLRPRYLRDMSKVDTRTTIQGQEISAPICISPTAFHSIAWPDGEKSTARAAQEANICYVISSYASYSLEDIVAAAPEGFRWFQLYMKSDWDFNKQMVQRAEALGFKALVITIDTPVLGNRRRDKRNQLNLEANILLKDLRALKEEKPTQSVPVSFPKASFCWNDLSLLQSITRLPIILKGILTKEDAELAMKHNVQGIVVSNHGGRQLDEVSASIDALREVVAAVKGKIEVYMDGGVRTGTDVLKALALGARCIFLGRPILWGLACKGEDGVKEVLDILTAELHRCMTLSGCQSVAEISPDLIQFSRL

[5] = target: T2, 2-Hydroxyacid oxidase 2 (Rattus norvegicus); assay: Inhibition of rat Hao2-mediated oxidation of 2-hydroxyoctanoic acid assessed as proportionate release of H2O2 at 1 uM
[6] = target: T3, 2-Hydroxyacid oxidase 2 (Homo sapiens, UniProt Q9NYQ3); assay: Inhibition of human Hao2-mediated oxidation of 2-hydroxyoctanoic acid assessed as proportionate release of H2O2
T3 sequence (Q9NYQ3 whole entry): T1 sequence (whole entry)

Row | SMILES | inhibition [1] | Ratio IC50 [2] | inhibition [3] | inhibition [4] | inhibition [5] | IC50 [6]
1 | Cc1n[nH]c(C(=O)O)c1-c1ccc(-c2ccc(F)cc2)cc1 | 19% | > 150 | 55% | 65% | 13% | –
2 | Cc1n[nH]c(C(=O)O)c1Cc1ccccc1-c1ccc(F)cc1 | 11% | > 150 | 56% | 73% | 21% | –
3 | Cc1n[nH]c(C(=O)O)c1CCc1ccc(F)cc1 | 5% | > 150 | 16% | 81% | 31% | –
4 | Cc1n[nH]c(C(=O)O)c1Cc1ccc(C(F)(F)F)cc1 | 9% | > 150 | 12% | 71% | 35% | –

Results, then the compound that gave them:

Row | inhibition [1] | Ratio IC50 [2] | inhibition [3] | inhibition [4] | inhibition [5] | IC50 [6] | SMILES
5 | 26% | > 150 | 66% | 87% | 47% | – | Cc1n[nH]c(C(=O)O)c1Cc1cc2ccccc2o1
6 | 0% | > 150 | 6% | 85% | 33% | – | Cc1n[nH]c(C(=O)O)c1Cc1ccc(C#N)cc1
7 | 9% | > 150 | 49% | 69% | 10% | – | Cc1n[nH]c(C(=O)O)c1Cc1ccccc1Oc1ccccc1
8 | 3% | > 150 | 22% | 69% | 40% | – | Cc1n[nH]c(C(=O)O)c1Cc1ccc(C(=O)O)cc1
9 | – | – | – | 79% | 35% | 950 nM | Cc1n[nH]c(C(=O)O)c1-c1cccc(-c2ccc(F)cc2)c1
10 | 3% | > 150 | 0% | 60% | 7% | – | Cc1n[nH]c(C(=O)O)c1Cc1cccc(C(=O)O)c1
